What was measured:
MOLT-4 = test: Growth inhibition of human MOLT4 cells incubated for 48 hrs by sulforhodamine B assay; assay type: functional, cell-based; details: MOLT-4, 48 h
SF-268 [1] = test: Growth inhibition of human SF268 cells incubated for 48 hrs by sulforhodamine B assay; assay type: functional, cell-based; details: SF-268, 48 h
SNB-75 = test: Growth inhibition of human SNB75 cells assessed as cell growth at 0.01 uM incubated for 48 hrs by sulforhodamine B assay relative to control; assay type: functional; details: SNB-75, 48 h, read-out: Activity
SK-MEL-2 [2] = test: Growth inhibition of human SK-MEL-2 cells assessed as cell growth at 10 uM incubated for 48 hrs by sulforhodamine B assay relative to control; assay type: functional; details: SK-MEL-2, 48 h, read-out: Activity
RXF 393 = test: Growth inhibition of human RXF393 cells assessed as cell growth at 1 uM incubated for 48 hrs by sulforhodamine B assay relative to control; assay type: functional; details: RXF 393, 48 h, read-out: Activity
SK-OV-3 = test: Growth inhibition of human SKOV3 cells assessed as cell growth at 1 uM incubated for 48 hrs by sulforhodamine B assay relative to control; assay type: functional; details: SK-OV-3, 48 h, read-out: Activity
U-251 = test: Growth inhibition of human U251 cells assessed as cell growth at 0.01 uM incubated for 48 hrs by sulforhodamine B assay relative to control; assay type: functional; details: U-251, 48 h, read-out: Activity
SF-268 [3] = test: Growth inhibition of human SF268 cells assessed as cell growth at 1 uM incubated for 48 hrs by sulforhodamine B assay relative to control; assay type: functional; details: SF-268, 48 h, read-out: Activity
RPMI-8226 = test: Growth inhibition of human RPMI8226 cells assessed as cell growth at 1 uM incubated for 48 hrs by sulforhodamine B assay relative to control; assay type: functional; details: RPMI-8226, 48 h, read-out: Activity
Hs-578T [4] = test: Growth inhibition of human Hs578T cells assessed as cell growth at 0.01 uM incubated for 48 hrs by sulforhodamine B assay relative to control; assay type: functional; details: read-out: Activity
HOP-62 = test: Growth inhibition of human HOP62 cells assessed as cell growth at 1 uM incubated for 48 hrs by sulforhodamine B assay relative to control; assay type: functional; details: HOP-62, 48 h, read-out: Activity
A549 [5] = test: Growth inhibition of human A549/ATCC cells assessed as cell growth at 0.1 uM incubated for 48 hrs by sulforhodamine B assay relative to control; assay type: functional; details: A549, 48 h, read-out: Activity
A549 [6] = test: Growth inhibition of human A549/ATCC cells assessed as cell growth at 100 uM incubated for 48 hrs by sulforhodamine B assay relative to control; assay type: functional; details: A549, 48 h, read-out: Activity
CCRF-CEM = test: Growth inhibition of human CCRF-CEM cells assessed as cell growth at 1 uM incubated for 48 hrs by sulforhodamine B assay relative to control; assay type: functional; details: read-out: Activity
Hs-578T [7] = test: Growth inhibition of human Hs578T cells incubated for 48 hrs by sulforhodamine B assay; assay type: functional, cell-based
K562 = test: Growth inhibition of human K562 cells assessed as cell growth at 0.1 uM incubated for 48 hrs by sulforhodamine B assay relative to control; assay type: functional; details: K562, 48 h, read-out: Activity
COLO 205 = test: Growth inhibition of human COLO205 cells assessed as cell growth at 0.01 uM incubated for 48 hrs by sulforhodamine B assay relative to control; assay type: functional; details: COLO 205, 48 h, read-out: Activity
SNB-19 = test: Growth inhibition of human SNB19 cells assessed as cell growth at 100 uM incubated for 48 hrs by sulforhodamine B assay relative to control; assay type: functional; details: SNB-19, 48 h, read-out: Activity
OVCAR-8 = test: Growth inhibition of human OVCAR8 cells assessed as cell growth at 1 uM incubated for 48 hrs by sulforhodamine B assay relative to control; assay type: functional; details: OVCAR-8, 48 h, read-out: Activity
UACC-257 = test: Growth inhibition of human UACC257 cells assessed as cell growth at 1 uM incubated for 48 hrs by sulforhodamine B assay relative to control; assay type: functional; details: UACC-257, 48 h, read-out: Activity
NCI-H23 = test: Growth inhibition of human NCI-H23 cells assessed as cell growth at 0.1 uM incubated for 48 hrs by sulforhodamine B assay relative to control; assay type: functional; details: NCI-H23, 48 h, read-out: Activity
Hs-578T [8] = test: Growth inhibition of human Hs578T cells assessed as cell growth at 100 uM incubated for 48 hrs by sulforhodamine B assay relative to control; assay type: functional; details: read-out: Activity
HT-29 = test: Growth inhibition of human HT-29 cells incubated for 48 hrs by sulforhodamine B assay; assay type: functional, cell-based; details: HT-29, 48 h
HL-60(TB) = test: Growth inhibition of human HL-60(TB) cells incubated for 48 hrs by sulforhodamine B assay; assay type: functional, cell-based; details: HL-60, 48 h
A498 = test: Growth inhibition of human A498 cells assessed as cell growth at 1 uM incubated for 48 hrs by sulforhodamine B assay relative to control; assay type: functional; details: A498, 48 h, read-out: Activity
SK-MEL-2 [9] = test: Growth inhibition of human SK-MEL-2 cells incubated for 48 hrs by sulforhodamine B assay; assay type: functional, cell-based; details: SK-MEL-2, 48 h
MDA-MB-435 = test: Growth inhibition of human MDA-MB-435 cells incubated for 48 hrs by sulforhodamine B assay; assay type: functional, cell-based; details: MDA-MB-435, 48 h
NCI-H226 = test: Growth inhibition of human NCI-H226 cells incubated for 48 hrs by sulforhodamine B assay; assay type: functional, cell-based; details: NCI-H226, 48 h
[10] = read-out: LC50 (the source's name)
[11] = read-out: pLC50 (the source's name) (converted)

Q: What does the source list for `COc1cc(Cl)cc(-c2nn(-c3cccc(NC(=O)Nc4ccc(Cl)c(C(F)(F)F)c4)c3)cc2-c2ccncc2)c1`?
A: GI50 (MOLT-4; read-out: GI50): 1.23 µM; CC50 (MOLT-4; [10]): > 100 µM; TGI (MOLT-4; read-out: TGI): 45.5 µM; GI50 (MOLT-4; read-out: pGI50 (converted)): 1.23 µM; CC50 (MOLT-4; [11]): > 100 µM; TGI (MOLT-4; read-out: pTGI (converted)): 4.68 µM; GI50 (SF-268 [1]; read-out: GI50): 2.55 µM; CC50 (SF-268 [1]; [10]): 7.96 µM; TGI (SF-268 [1]; read-out: TGI): 12.1 µM; GI50 (SF-268 [1]; read-out: pGI50 (converted)): 2.63 µM; CC50 (SF-268 [1]; [11]): 79.4 µM; TGI (SF-268 [1]; read-out: pTGI (converted)): 12 µM; growth at 0.01 µM (SNB-75): 57%; growth at 10 µM (SK-MEL-2 [2]): -34%; growth at 1 µM (RXF 393): 78%; growth at 1 µM (SK-OV-3): 100%; growth at 0.01 µM (U-251): 98%; growth at 1 µM (SF-268 [3]): 83%; growth at 1 µM (RPMI-8226): 17%; growth at 0.01 µM (Hs-578T [4]): 95%; growth at 1 µM (HOP-62): 84%; growth at 0.1 µM (A549 [5]): 98%; growth at 100 µM (A549 [6]): -76%; growth at 1 µM (CCRF-CEM): 37%; GI50 (Hs-578T [7]; read-out: GI50): 4.29 µM; CC50 (Hs-578T [7]; [10]): > 100 µM; TGI (Hs-578T [7]; read-out: TGI): 67.7 µM; GI50 (Hs-578T [7]; read-out: pGI50 (converted)): 4.27 µM; CC50 (Hs-578T [7]; [11]): > 100 µM; TGI (Hs-578T [7]; read-out: pTGI (converted)): 67.6 µM; growth at 0.1 µM (K562): 91%; growth at 0.01 µM (COLO 205): 97%; growth at 100 µM (SNB-19): -25%; growth at 1 µM (OVCAR-8): 43%; growth at 1 µM (UACC-257): 83%; growth at 0.1 µM (NCI-H23): 90%; growth at 100 µM (Hs-578T [8]): -6%; GI50 (HT-29; read-out: GI50): 1.14 µM; CC50 (HT-29; [10]): 3.52 µM; TGI (HT-29; read-out: TGI): 43.8 µM; GI50 (HT-29; read-out: pGI50 (converted)): 1.15 µM; CC50 (HT-29; [11]): 38 µM; TGI (HT-29; read-out: pTGI (converted)): 4.37 µM; GI50 (HL-60(TB); read-out: GI50): 1.55 µM; LC50 (HL-60(TB); read-out: LC50): > 100 µM; TGI (HL-60(TB); read-out: TGI): 55.3 µM; GI50 (HL-60(TB); read-out: pGI50 (converted)): 1.66 µM; LC50 (HL-60(TB); read-out: pLC50 (converted)): > 100 µM; TGI (HL-60(TB); read-out: pTGI (converted)): 5.5 µM; growth at 1 µM (A498): 78%; GI50 (SK-MEL-2 [9]; read-out: GI50): 1.79 µM; CC50 (SK-MEL-2 [9]; [10]): 9.59 µM; TGI (SK-MEL-2 [9]; read-out: TGI): 42.1 µM; GI50 (SK-MEL-2 [9]; read-out: pGI50 (converted)): 1.78 µM; CC50 (SK-MEL-2 [9]; [11]): 10 µM; TGI (SK-MEL-2 [9]; read-out: pTGI (converted)): 4.37 µM; GI50 (MDA-MB-435; read-out: GI50): 1.75 µM; LC50 (MDA-MB-435; read-out: LC50): > 100 µM; TGI (MDA-MB-435; read-out: TGI): 43.5 µM; GI50 (MDA-MB-435; read-out: pGI50 (converted)): 1.74 µM; LC50 (MDA-MB-435; read-out: pLC50 (converted)): > 100 µM; TGI (MDA-MB-435; read-out: pTGI (converted)): 3.47 µM; GI50 (NCI-H226; read-out: GI50): 2.5 µM; LC50 (NCI-H226; read-out: LC50): > 100 µM; TGI (NCI-H226; read-out: TGI): 14.7 µM; GI50 (NCI-H226; read-out: pGI50 (converted)): 2.51 µM; LC50 (NCI-H226; read-out: pLC50 (converted)): > 100 µM; TGI (NCI-H226; read-out: pTGI (converted)): 14.8 µM

Q: For `COc1cc(Cl)cc(-c2nn(-c3cccc(NC(=O)c4ccc(Cl)c(Cl)c4)c3)cc2-c2ccncc2)c1`, which growth at 10 µM (SK-MEL-2 [2]) is on record?
A: Its growth at 10 µM is 78.4%.
